# In article PMC9416487, “Comprehensive Evaluation of the Quality of Tripterygium Glycosides Tablets Based on Multi-Component Quantification Combined with an In Vitro Biological Assay” (Molecules, 2022):
# pIC50: −log10 of the molar value.
# Legend:
# [1] = test system: RAW 264.7 cells; experiment: Cytotoxicity against RAW 264.7 cells (CCK-8 method); details: for Therapeutic Index (TI, = TC50/IC50) / Cytotoxicity TC50: investigated compounds; for Cytotoxicity TC50: 24 h, CCK-8
# Description: Cells were cultured at 37 °C in a humidified air incubator with 5% CO2 in Dulbecco’s modified Eagle’s medium (DMEM; Gibco, Grand Island, NY, USA) supplemented with 10% fetal bovine serum (FBS; Gibco, USA), 100 units/mL penicillin and 100 µg/mL streptomycin (Gibco, USA).
# RAW 264.7 cells (5.0 × 10^4 cells/well) were seeded into a 96-well plate. After overnight incubation, various concentrations of TGT or target compound were applied to the cells, which were then incubated for 24 h. The same volume of DMSO was added to the compound-untreated group to account for any effects of DMSO on cell viability. Then, the culture medium was removed, 100 μL DMEM medium plus 10 μL CCK-8 reagent (MCE, Suzhou, China) was added, and the cells were incubated for another 2 h at 37 °C in a 5% CO2 incubator. Absorbance at 450 nm was read using a microplate reader, and cell viability was calculated as the percentage of absorbance of various concentrations versus the control group.
# [2] = test system: NO production in LPS-induced RAW 264.7 cells; experiment: Inhibitory effect on NO production in LPS-induced RAW 264.7 cells (Griess reagent); format: cell-based; details: for pIC50: Mus musculus, RAW264.7; for pIC50 / NO Inhibitory Effect IC50: investigated compounds, LPS (1 µg/mL)-induced RAW 264.7 cells, 24 h
# Description: The culture medium was replaced with DMEM medium containing various concentrations of TGT or target compound, subsequently treated with LPS (1 µg/mL), and then incubated for 24 h. After 50 µL of cultured medium was transferred to a new 96-well plate, 50 µL of Griess reagent was added to each well. The absorbance at 540 nm was determined using a microplate reader (PerkinElmer, Waltham, MA, USA). The concentration of NO in the culture supernatants was calculated by using a standard curve of nitrite, a major stable product of NO, which was generated according to the application instructions for the Griess reagent.
# [3] = set-up: method as in PMID 29787994; details: reported in the literature ref [20]; cited from earlier work
Structure (SMILES),Cytotoxicity TC50 [1],pIC50 [2],also measured
CC(C)[C@]12O[C@H]1[C@@H]1O[C@]13[C@]1(O[C@H]1C[C@H]1C4=C(CC[C@@]13C)C(=O)OC4)[C@@H]2O [triptolide],0.071 µM,7.18,"Therapeutic Index (TI, = TC50/IC50) [1]: 1.08"
CC(C)c1ccc2c(c1O)CC[C@H]1C3=C(CC[C@]21C)C(=O)OC3 [triptophenolide],,4.37,
CC(C)C1=CC(=O)C2=C(CC[C@H]3[C@@](C)(CO)C(=O)CC[C@]23C)C1=O [triptoquinone B],0.11 µM,4.45,"Therapeutic Index (TI, = TC50/IC50) [1]: 0.0031"
CC(=O)OC[C@]12[C@H](OC(C)=O)[C@H](OC(C)=O)[C@@H]3[C@@H](OC(C)=O)[C@@]14O[C@@]3(C)COC(=O)c1cccnc1CCC(C)(O)C(=O)O[C@@H]([C@H](OC(=O)c1ccco1)[C@@H]2OC(C)=O)[C@]4(C)O (stereo partly shown) [wilfortrine],nu (Had no NO inhibitory effect or cytotoxicity with an NO production rate less than 0 or cell viability more than 100% at a concentration of 50 μM),< 4.30,
CC(=O)OCC12C(OC(C)=O)C(OC(C)=O)C3C(OC(C)=O)C14OC3(C)COC(=O)c1cccnc1CCC(C)(OC(=O)c1ccccc1)C(=O)OC(C(OC(C)=O)C2OC(C)=O)C4(C)O (stereo not shown) [wilfornine A],w (had weak NO inhibitory effect or cytotoxicity with an NO production rate less than 50% or the cell viability more than 50% at a concentration of 50 μM),,NO Inhibitory Effect IC50 [2]: w (had weak NO inhibitory effect or cytotoxicity with an NO production rate less than 50% or the cell viability more than 50% at a concentration of 50 μM)
CC(=O)OC[C@]12[C@H](OC(C)=O)[C@H](OC(C)=O)[C@@H]3[C@@H](OC(C)=O)[C@@]14O[C@@]3(C)COC(=O)c1cccnc1CCC(C)C(=O)O[C@@H]([C@H](OC(=O)c1ccco1)[C@@H]2OC(C)=O)[C@]4(C)O (stereo partly shown) [wilforgine],w (had weak NO inhibitory effect or cytotoxicity with an NO production rate less than 50% or the cell viability more than 50% at a concentration of 50 μM),,NO Inhibitory Effect IC50 [2]: w (had weak NO inhibitory effect or cytotoxicity with an NO production rate less than 50% or the cell viability more than 50% at a concentration of 50 μM)
CC(=O)OCC12C(OC(C)=O)C(OC(C)=O)C3C(O)C14OC3(C)COC(=O)c1cccnc1C(C)C(C)C(=O)OC(C(OC(C)=O)C2OC(C)=O)C4(C)O (stereo not shown) [neoeunymine],nu (Had no NO inhibitory effect or cytotoxicity with an NO production rate less than 0 or cell viability more than 100% at a concentration of 50 μM),< 4.30,
CC(=O)OCC12C(OC(C)=O)C(OC(C)=O)C3C(OC(C)=O)C14OC3(C)COC(=O)c1cnccc1C(C)C(C)C(=O)OC(C(OC(C)=O)C2OC(C)=O)C4(C)O (stereo not shown) [peritassine A],nu (Had no NO inhibitory effect or cytotoxicity with an NO production rate less than 0 or cell viability more than 100% at a concentration of 50 μM),< 4.30,
CC(=O)OC[C@]12[C@H](OC(C)=O)[C@H](OC(C)=O)[C@@H]3[C@@H](OC(C)=O)[C@@]14O[C@@]3(C)COC(=O)c1cccnc1C(C)C(C)C(=O)O[C@@H]([C@H](OC(C)=O)[C@@H]2OC(C)=O)[C@]4(C)O (stereo partly shown) [euonymine],nu (Had no NO inhibitory effect or cytotoxicity with an NO production rate less than 0 or cell viability more than 100% at a concentration of 50 μM),< 4.30,
CC1(C)[C@@H](O)CC[C@]2(C)[C@H]3CC=C4[C@@H]5C[C@@]6(C)C[C@H](OC6=O)[C@]5(C)CC[C@@]4(C)[C@]3(C)CC[C@@H]12 [wilforlide A],nu (Had no NO inhibitory effect or cytotoxicity with an NO production rate less than 0 or cell viability more than 100% at a concentration of 50 μM),< 4.30,"cytotoxicity / influence on cell viability, in words ([1]; up to 50 μM): negligible; NO inhibitory effect / anti-inflammatory activity, in words ([2]; LPS-induced RAW 264.7 cells, up to 50 μM): negligible anti-inflammatory activity; oral bioavailability [3]: extremely low"
CC(=O)OC[C@]12[C@H](OC(C)=O)[C@H](OC(C)=O)[C@@H]3[C@@H](OC(C)=O)[C@@]14O[C@@]3(C)COC(=O)c1cccnc1CCC(C)C(=O)O[C@@H]([C@H](OC(=O)c1ccccc1)[C@@H]2OC(C)=O)[C@]4(C)O (stereo partly shown) [wilforine],w (had weak NO inhibitory effect or cytotoxicity with an NO production rate less than 50% or the cell viability more than 50% at a concentration of 50 μM),,NO Inhibitory Effect IC50 [2]: w (had weak NO inhibitory effect or cytotoxicity with an NO production rate less than 50% or the cell viability more than 50% at a concentration of 50 μM)
C[C@@]1(C(=O)O)CC[C@]2(C)CC[C@]3(C)C4=CC(=O)c5c(cc(O)c(O)c5C=O)[C@]4(C)CC[C@@]3(C)[C@@H]2C1 [demethylzeylasteral],27.59 µM,5.46,"Therapeutic Index (TI, = TC50/IC50) [1]: 7.93"
CC1=C(O)C(=O)C=C2C1=CC=C1[C@@]2(C)CC[C@@]2(C)[C@@H]3C[C@](C)(C(=O)O)CC[C@]3(C)CC[C@]12C [celastrol],1.72 µM,6.25,"Therapeutic Index (TI, = TC50/IC50) [1]: 3.07"
C[C@@]1(O)C[C@@]23CC[C@H]4[C@@]5(CCC[C@]4(C)C(=O)OC5)[C@@H]2CC[C@H]1C3 [tripterifordin],w ^b (had weak NO inhibitory effect or cytotoxicity with an NO production rate less than 50% or the cell viability more than 50% at a concentration of 50 μM),< 4.30,
